Assay results taken from ChEMBL document CHEMBL1201862, “PubChem BioAssay data set” (2004).
One block for each molecule: values may come before it. Activity calls are given as the source filed them.

Legend:
[1] = target: T1, Short transient receptor potential channel 4 (Mus musculus, UniProt Q9QUQ5); experiment: mouse TRPC4 channel activators, dose response, cell-based, HEK293 TRPC4/mu-opioid, Fluo-4 calcium (AID 434937); format: functional
T1 sequence (Q9QUQ5 whole entry): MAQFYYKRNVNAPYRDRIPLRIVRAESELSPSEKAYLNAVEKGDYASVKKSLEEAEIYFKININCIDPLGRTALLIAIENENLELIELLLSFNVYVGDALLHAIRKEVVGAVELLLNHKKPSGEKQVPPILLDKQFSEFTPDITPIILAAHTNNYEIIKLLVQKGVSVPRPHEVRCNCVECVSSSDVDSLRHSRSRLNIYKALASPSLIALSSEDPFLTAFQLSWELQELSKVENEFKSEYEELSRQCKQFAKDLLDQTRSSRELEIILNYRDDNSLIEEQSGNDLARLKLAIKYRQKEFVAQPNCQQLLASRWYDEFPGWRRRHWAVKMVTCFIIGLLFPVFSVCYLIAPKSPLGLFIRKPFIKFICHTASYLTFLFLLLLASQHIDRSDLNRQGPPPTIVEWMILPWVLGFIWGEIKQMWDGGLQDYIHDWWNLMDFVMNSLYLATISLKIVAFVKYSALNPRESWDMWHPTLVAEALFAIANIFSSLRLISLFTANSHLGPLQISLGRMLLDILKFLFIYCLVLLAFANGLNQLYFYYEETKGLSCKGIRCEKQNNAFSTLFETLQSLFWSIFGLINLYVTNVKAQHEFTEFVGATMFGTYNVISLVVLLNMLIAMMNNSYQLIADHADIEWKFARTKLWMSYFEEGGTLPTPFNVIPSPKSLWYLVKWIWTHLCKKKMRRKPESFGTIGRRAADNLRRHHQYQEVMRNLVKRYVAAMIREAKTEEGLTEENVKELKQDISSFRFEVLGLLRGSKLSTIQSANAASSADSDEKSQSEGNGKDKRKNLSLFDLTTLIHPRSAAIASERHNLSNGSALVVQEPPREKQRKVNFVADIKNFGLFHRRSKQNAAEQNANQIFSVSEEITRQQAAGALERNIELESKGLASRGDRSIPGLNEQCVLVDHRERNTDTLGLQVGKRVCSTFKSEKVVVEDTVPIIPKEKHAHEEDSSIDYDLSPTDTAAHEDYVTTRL

Cysteine protease ATG4B = target: T2, Cysteine protease ATG4B (Homo sapiens, UniProt Q9Y4P1); format: functional;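 further: Fluorescence-based dose-response confirmation assay measuring inhibition of ATG4B activity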
T2 sequence (Q9Y4P1 whole entry): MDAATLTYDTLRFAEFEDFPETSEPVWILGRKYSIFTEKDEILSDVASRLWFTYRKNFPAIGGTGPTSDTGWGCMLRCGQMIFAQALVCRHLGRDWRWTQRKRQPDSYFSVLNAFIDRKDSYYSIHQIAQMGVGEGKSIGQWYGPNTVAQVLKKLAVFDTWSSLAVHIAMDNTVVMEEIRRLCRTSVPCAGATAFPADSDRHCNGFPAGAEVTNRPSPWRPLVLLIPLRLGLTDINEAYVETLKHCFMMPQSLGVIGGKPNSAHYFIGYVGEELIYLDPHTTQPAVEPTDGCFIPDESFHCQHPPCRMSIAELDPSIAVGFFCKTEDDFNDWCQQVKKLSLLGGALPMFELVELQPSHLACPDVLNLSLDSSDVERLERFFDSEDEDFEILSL

Phospholipase A2 = Phospholipase A2 (Homo sapiens, UniProt P04054); format: functional;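 further: confirmatory dose-response counterscreen on phospholipase A2, testing hits that came from an ultra-high-throughput screen for ATG4B inhibitors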
Leucine aminopeptidase = target: T3, Leucine aminopeptidase (Plasmodium falciparum 3D7, UniProt Q8IL11); experiment: P. falciparum M17LAP inhibitors, primary screen, biochemical, fluorogenic H-Leu-NHMec substrate, 1536-well (AID 1619); format: functional
T3 sequence (Q8IL11 whole entry): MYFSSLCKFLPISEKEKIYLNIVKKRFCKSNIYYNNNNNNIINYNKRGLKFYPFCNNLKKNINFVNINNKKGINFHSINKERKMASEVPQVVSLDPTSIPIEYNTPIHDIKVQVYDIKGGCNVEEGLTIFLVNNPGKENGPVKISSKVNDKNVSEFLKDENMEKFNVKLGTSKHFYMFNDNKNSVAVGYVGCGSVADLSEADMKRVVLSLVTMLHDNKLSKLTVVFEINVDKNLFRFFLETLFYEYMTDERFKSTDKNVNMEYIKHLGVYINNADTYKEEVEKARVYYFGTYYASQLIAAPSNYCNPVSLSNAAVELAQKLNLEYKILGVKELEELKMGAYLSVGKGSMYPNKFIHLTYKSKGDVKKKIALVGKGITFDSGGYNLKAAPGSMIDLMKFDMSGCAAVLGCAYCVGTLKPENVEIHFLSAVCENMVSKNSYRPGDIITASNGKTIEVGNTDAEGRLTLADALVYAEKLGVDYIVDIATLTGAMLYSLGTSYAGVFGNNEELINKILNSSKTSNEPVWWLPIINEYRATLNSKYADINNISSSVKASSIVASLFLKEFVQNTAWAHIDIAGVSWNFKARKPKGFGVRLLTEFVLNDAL

[2] = target: T4, Carboxy-terminal domain RNA polymerase II polypeptide A small phosphatase 1 (Homo sapiens, UniProt Q9GZU7); experiment: inhibitors of CTDSP1, concentration-response testing, biochemical assay, absorbance-based, actives from ultra-high-throughput screening (AID 540297); format: functional
T4 sequence (Q9GZU7 whole entry): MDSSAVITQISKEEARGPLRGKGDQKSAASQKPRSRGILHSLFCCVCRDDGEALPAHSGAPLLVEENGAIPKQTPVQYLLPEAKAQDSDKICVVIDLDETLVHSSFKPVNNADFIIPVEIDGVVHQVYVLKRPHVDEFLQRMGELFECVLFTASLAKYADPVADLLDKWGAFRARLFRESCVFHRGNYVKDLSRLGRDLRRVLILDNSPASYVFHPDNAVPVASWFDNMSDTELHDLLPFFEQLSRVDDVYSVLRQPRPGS

Cytochrome P450 1A2 = target: T5, Cytochrome P450 1A2 (Homo sapiens, UniProt P05177);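 further: PubChem cytochrome P450 panel assay, CYP1A2 panel member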
T5 sequence (P05177 whole entry): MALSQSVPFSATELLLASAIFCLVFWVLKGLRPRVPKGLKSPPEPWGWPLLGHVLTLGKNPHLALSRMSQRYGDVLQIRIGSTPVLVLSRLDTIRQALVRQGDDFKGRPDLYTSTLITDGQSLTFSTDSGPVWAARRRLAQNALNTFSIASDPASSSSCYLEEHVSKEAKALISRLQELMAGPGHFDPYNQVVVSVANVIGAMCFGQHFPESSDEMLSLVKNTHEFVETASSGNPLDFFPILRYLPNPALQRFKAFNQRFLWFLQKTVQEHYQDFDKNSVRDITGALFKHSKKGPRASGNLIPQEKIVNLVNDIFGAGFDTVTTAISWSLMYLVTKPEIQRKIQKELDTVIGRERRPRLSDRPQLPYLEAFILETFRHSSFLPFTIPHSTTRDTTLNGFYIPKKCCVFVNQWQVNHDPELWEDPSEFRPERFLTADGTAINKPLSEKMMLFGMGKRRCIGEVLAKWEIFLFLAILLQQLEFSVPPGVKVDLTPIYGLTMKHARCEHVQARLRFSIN

Cytochrome P450 2C19 = Cytochrome P450 2C19 (Homo sapiens, UniProt P33261); experiment: Cytochrome panel assay with activity outcomes. Panel member name: p450-cyp2c19 Compounds with AC50 equal or less than 10 uM are considered active; format: functional; details: read-out: AC50
Cytochrome P450 2D6 = Cytochrome P450 2D6 (Homo sapiens, UniProt P10635);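 further: CYP2D6 member of a cytochrome P450 panel assay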
Cytochrome P450 3A4 = Cytochrome P450 3A4 (Homo sapiens, UniProt P08684);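 further: CYP3A4 tested as one member of a cytochrome P450 panel screen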
Cytochrome P450 2C9 = Cytochrome P450 2C9 (Homo sapiens, UniProt P11712)
[3] = target: Heat shock protein HSP 90-alpha (Homo sapiens, UniProt P07900); format: functional, organism-based
P388 = experiment: cells; format: functional; details: Mus musculus
P388/ADR = experiment: cells; format: functional; details: Mus musculus
SN12K1 = experiment: cells; format: functional; details: Homo sapiens
[4] = target: T6, Zinc finger protein mex-5 (Caenorhabditis elegans, UniProt Q9XUB2); experiment: MEX-5/TCR-2 RNA interaction inhibitors, dose response, biochemical, C. elegans, fluorescence polarization (AID 1960)
T6 sequence (Q9XUB2 whole entry): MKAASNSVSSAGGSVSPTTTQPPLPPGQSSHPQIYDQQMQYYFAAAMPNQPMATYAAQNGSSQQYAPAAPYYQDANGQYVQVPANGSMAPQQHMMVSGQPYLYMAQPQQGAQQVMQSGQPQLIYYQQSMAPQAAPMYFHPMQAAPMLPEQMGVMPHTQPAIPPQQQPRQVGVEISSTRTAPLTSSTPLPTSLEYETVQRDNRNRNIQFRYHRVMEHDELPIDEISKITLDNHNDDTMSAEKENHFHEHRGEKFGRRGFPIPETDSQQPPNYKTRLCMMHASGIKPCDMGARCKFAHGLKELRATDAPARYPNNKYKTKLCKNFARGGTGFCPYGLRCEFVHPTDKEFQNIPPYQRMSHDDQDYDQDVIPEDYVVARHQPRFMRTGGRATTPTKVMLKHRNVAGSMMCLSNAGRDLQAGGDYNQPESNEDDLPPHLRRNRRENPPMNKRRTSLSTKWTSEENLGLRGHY

[5] = target: T7, RNA-binding protein pos-1 (Caenorhabditis elegans, UniProt G5EF15); experiment: inhibitors of POS-1/mex-3 RNA binding, dose response, biochemical, fluorescence polarization (AID 1964);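 further: purified POS-1 fused to maltose binding protein made in E. coli; potency of compounds blocking POS-1 binding to fluorescent RNA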
T7 sequence (G5EF15 whole entry): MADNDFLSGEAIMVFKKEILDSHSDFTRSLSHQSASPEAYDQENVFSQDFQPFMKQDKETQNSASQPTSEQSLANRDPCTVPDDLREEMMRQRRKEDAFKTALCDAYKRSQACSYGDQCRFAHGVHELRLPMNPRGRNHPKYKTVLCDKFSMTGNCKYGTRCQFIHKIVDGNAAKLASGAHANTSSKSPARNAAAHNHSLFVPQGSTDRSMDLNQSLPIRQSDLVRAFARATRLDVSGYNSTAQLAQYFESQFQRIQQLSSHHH

[6] = target: T8, High affinity choline transporter 1 (Homo sapiens, UniProt Q9GZV3); experiment: CHT inhibitors, dose response, cell-based, 5-point CRC, membrane potential dye (AID 504840); format: functional
T8 sequence (Q9GZV3 whole entry): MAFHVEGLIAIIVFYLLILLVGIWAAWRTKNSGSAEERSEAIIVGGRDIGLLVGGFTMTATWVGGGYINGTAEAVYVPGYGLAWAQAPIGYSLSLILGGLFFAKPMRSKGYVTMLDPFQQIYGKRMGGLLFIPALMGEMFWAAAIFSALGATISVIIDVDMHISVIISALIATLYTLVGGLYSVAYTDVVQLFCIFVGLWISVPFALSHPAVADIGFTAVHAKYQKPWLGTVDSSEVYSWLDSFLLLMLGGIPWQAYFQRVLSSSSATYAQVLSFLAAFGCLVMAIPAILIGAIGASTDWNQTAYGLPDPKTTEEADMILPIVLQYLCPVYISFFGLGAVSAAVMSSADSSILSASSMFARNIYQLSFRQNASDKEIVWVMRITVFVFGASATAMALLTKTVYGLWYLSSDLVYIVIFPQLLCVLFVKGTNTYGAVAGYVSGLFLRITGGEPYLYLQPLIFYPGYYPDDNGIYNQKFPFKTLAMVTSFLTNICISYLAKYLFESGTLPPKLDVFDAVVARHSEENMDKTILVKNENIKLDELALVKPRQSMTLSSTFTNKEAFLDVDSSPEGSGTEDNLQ

Chain of Phospholipase A2 (P04054 whole entry): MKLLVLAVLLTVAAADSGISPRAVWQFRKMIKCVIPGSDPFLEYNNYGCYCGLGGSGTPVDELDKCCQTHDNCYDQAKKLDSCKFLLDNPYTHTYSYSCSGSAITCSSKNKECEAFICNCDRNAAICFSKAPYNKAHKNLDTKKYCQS
Chain of Cytochrome P450 3A4 (P08684 whole entry): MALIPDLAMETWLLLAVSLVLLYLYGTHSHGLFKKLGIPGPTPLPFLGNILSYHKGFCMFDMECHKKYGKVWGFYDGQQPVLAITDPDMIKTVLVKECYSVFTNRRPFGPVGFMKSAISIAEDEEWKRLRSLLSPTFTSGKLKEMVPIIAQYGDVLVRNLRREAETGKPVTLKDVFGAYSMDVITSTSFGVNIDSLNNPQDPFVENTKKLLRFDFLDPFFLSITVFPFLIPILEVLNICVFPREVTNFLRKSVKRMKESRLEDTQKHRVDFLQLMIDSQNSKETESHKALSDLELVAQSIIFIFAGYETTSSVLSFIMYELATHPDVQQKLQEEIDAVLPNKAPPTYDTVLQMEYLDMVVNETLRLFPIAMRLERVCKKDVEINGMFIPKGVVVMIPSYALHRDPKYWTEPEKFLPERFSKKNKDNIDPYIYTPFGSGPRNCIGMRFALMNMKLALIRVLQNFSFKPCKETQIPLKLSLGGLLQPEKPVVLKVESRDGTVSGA
Chain of Cytochrome P450 2D6 (P10635 whole entry): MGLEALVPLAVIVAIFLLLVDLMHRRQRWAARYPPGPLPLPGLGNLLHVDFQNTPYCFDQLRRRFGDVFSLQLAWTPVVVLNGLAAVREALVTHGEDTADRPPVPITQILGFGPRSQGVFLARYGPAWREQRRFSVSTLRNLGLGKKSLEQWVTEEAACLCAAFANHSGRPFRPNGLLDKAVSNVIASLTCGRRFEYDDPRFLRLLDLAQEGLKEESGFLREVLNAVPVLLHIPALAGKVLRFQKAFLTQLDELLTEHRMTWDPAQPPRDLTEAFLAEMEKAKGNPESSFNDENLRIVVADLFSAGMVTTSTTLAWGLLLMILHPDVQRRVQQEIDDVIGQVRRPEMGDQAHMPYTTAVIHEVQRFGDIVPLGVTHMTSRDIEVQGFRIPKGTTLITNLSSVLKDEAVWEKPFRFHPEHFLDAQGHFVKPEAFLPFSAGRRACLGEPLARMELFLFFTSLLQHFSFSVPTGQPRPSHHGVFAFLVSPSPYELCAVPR
Chain of Cytochrome P450 2C9 (P11712 whole entry): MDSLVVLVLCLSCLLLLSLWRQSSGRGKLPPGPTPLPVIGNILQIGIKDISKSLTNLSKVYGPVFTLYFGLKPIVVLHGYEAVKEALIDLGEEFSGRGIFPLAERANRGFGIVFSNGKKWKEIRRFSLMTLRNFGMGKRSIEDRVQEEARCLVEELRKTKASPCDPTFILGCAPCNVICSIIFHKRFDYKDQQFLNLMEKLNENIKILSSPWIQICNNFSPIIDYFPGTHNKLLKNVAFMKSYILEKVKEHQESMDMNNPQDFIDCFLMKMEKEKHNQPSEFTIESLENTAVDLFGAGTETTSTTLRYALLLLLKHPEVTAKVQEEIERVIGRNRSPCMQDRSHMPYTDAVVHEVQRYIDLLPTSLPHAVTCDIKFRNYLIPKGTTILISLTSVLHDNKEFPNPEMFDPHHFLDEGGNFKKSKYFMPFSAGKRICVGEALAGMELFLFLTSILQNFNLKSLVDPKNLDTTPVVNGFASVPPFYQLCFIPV
Chain of Cytochrome P450 2C19 (P33261 whole entry): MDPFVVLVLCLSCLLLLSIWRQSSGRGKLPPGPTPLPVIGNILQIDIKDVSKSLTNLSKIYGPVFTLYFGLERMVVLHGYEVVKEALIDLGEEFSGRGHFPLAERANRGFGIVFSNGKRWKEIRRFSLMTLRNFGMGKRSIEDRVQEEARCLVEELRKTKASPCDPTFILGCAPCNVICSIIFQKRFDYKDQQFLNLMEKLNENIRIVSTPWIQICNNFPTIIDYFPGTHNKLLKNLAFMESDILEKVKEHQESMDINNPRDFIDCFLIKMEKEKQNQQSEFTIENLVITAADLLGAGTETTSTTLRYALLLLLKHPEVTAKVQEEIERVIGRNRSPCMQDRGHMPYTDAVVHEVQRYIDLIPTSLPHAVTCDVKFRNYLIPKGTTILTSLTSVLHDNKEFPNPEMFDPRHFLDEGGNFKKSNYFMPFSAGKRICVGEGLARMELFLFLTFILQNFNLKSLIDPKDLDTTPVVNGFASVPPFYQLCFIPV

SMILES: O=c1c(Cc2ccc(F)cc2)c(O)ccn1CCc1c[nH]cn1
EC50 [1]: 5.31 µM (active)

SMILES: C=CCn1c(SCc2nc3scc(-c4ccccc4)c3c(=O)[nH]2)nnc1-c1ccccc1F
IC50 (Cysteine protease ATG4B): 15.9 µM (active)
IC50 (Phospholipase A2): 12.1 µM (active)

SMILES: O=C(O)C1CCCCC1C(=O)Nc1cccc(Cl)c1Cl (centres undefined)
IC50 (Leucine aminopeptidase): 13.5 µM (active)

SMILES: O=C(O)C1CCCCC1C(=O)Nc1ccc2c(c1)OCCO2 (centres undefined)
IC50 (Leucine aminopeptidase): 32.9 µM (active)

SMILES: CSc1nc2nccc(-c3ccc(Cl)cc3)n2n1
IC50 [2]: 11.3 µM (active)

SMILES: CCCCCN1CC(=O)C(c2nc(-c3ccc(Cl)cc3)cs2)=C1N
IC50 [2]: 5.38 µM (active)
AC50 (Cytochrome P450 1A2): 1.58 µM (inconclusive)
AC50 (Cytochrome P450 2C19): 1.12 µM (inconclusive)

SMILES: Cc1cccc(N2CCN(C(=O)C3CCN(c4ncnc5c4nc4n5CCCCC4)CC3)CC2C)c1 (centres undefined)
IC50 (Cysteine protease ATG4B): 15.3 µM (active)
IC50 (Phospholipase A2): 11.1 µM (active)

SMILES: O=C(c1ccc(Cl)cc1)N1CCN(c2ccc(F)cc2)CC1
AC50 [3]: 5.2 µM (active)

SMILES: CC12CCC(C(=O)N3CC=CCC3)(OC1=O)C2(C)C (centres undefined)
GI50 (P388): > 100 µM (inactive)
GI50 (P388/ADR): > 100 µM (inactive)
GI50 (SN12K1): > 100 µM (inactive)

SMILES: Oc1c(Cl)cc(Cl)cc1/C=N/c1ccc2c(c1)OCCO2
IC50 (Cysteine protease ATG4B): 7.3 µM (active)
IC50 [6]: 10 µM (active)
IC50 (Phospholipase A2): 11.2 µM (active)

Now from value to molecule:

IC50 (Leucine aminopeptidase): 17.6 µM (active)
SMILES: COc1cccc2c(=O)n(CC(=O)N3CCCCCC3)ccc12

IC50 (Leucine aminopeptidase): 5.42 µM (active)
SMILES: O=C(Nc1c(C(=O)O)oc2ccc(Br)cc12)c1ccccc1

EC50 [1]: 0.376 µM (active)
SMILES: COc1ccc(C(CNC(=O)c2cc(C)on2)N(C)C)cc1 (centres undefined)

EC50 [1]: 2.11 µM (active)
SMILES: COc1ccc(C(CNC(=O)C2CCN(S(=O)(=O)c3ccc(F)cc3)CC2)N(C)C)cc1 (centres undefined)

AC50 (Cytochrome P450 2D6): 12.6 µM (inconclusive)
AC50 (Cytochrome P450 3A4): 14.1 µM (inconclusive)
AC50 (Cytochrome P450 2C9): 5.62 µM (inconclusive)
IC50 (Leucine aminopeptidase): 5.29 µM (active)
SMILES: COc1ccccc1NC(=O)CC1COc2ccccc2O1 (centres undefined)

AC50 [3]: 5.63 µM (active)
SMILES: O=C(/C=C/c1ccnc2ccccc12)c1cccs1

EC50 [1]: 2.66 µM (active)
SMILES: CC(=O)Nc1ccc(CN2CCCC(C(=O)c3ccc(C(F)(F)F)cc3)C2)cc1 (centres undefined)

IC50 [2]: 8.69 µM (active)
EC50 [4]: > 300 µM (not active)
EC50 [5]: > 300 µM (not active)
SMILES: O=C(N/N=C/c1cccn1-c1cccc(C(=O)O)c1)Nc1ccccc1

IC50 [2]: 4.32 µM (active)
SMILES: CCOC(=O)C1=C(C)N=c2s/c(=C\c3cccc(OCC(=O)O)c3)c(=O)n2C1c1ccccc1OC (centres undefined)

IC50 (Cysteine protease ATG4B): 17.9 µM (active)
IC50 (Phospholipase A2): 9.15 µM (active)
SMILES: Cc1ccc2nc(N/N=C/c3ccccc3F)nc(-c3ccccc3)c2c1
